The target in experiment [1] is T1, Serine/threonine-protein kinase 3 (Homo sapiens) (UniProt Q13188).
T1 sequence (whole entry): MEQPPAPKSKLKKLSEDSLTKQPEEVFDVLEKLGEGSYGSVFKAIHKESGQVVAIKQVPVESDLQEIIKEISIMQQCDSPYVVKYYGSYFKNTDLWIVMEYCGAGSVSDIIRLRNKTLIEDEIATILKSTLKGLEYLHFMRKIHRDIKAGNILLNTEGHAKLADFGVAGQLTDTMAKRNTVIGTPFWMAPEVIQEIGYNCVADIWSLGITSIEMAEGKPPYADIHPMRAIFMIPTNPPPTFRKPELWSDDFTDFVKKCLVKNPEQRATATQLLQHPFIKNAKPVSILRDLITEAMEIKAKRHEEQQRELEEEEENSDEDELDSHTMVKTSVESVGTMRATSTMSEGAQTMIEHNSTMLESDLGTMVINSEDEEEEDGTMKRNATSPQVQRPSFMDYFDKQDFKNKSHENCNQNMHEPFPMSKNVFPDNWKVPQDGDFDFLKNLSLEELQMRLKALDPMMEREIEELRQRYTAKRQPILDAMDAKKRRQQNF
Briefly: Inhibition of human full length MST2 expressed in baculovirus assessed as substrate phosphorylation using fluorescence-labelled peptides as substrate at 420 uM after 90 mins by microfluidic peptide phosphorylation assay.

For experiment [2], the target named is Receptor-type tyrosine-protein kinase FLT3 (Homo sapiens) (UniProt P36888). As to the kind of experiment: Inhibition of human FLT3 catalytic domain expressed in baculovirus assessed as substrate phosphorylation using fluorescence-labelled peptides as substrate at 420 uM after 90 mins by microfluidic peptide phosphorylation assay.
The target of experiment [3] is Aurora kinase B (Homo sapiens) (UniProt Q96GD4). As to the kind of experiment: Inhibition of human full length AurB expressed in baculovirus assessed as substrate phosphorylation using fluorescence-labelled peptides as substrate at 420 uM after 90 mins by microfluidic peptide phosphorylation assay.
Experiment [4] concerns the target Ribosomal protein S6 kinase alpha-2 (Homo sapiens) (UniProt Q15349). Briefly: Inhibition of human full length RSK3 expressed in baculovirus assessed as substrate phosphorylation using fluorescence-labelled peptides as substrate at 0.06 uM after 90 mins by microfluidic peptide phosphorylation assay.
In experiment [5] the test system is Tyrosine-protein kinase ABL1 (Homo sapiens), P00519 [T315I]. As to the kind of experiment: Inhibition of human truncated ABL T315I mutant expressed in baculovirus assessed as substrate phosphorylation using fluorescence-labelled peptides as substrate at 0.2 uM after 90 mins by microfluidic peptide phosphorylation assay.
In experiment [6] the target is Fibroblast growth factor receptor 2 (Homo sapiens) (UniProt P21802). Briefly: Inhibition of human FGFR2 catalytic domain expressed in baculovirus assessed as substrate phosphorylation using fluorescence-labelled peptides as substrate at 0.2 uM after 90 mins by microfluidic peptide phosphorylation assay.
The target in experiment [7] is Mitogen-activated protein kinase 14 (Homo sapiens) (UniProt Q16539). Briefly: Inhibition of human truncated p38 alpha expressed in Escherichia coli cell assessed as substrate phosphorylation using fluorescence-labelled peptides as substrate at 0.2 uM after 90 mins by microfluidic peptide phosphorylation assay.
For experiment [8], the target named is MAP kinase-activated protein kinase 3 (Homo sapiens) (UniProt Q16644). Briefly: Inhibition of human full length MAPKAPK3 expressed in Escherichia coli cell assessed as substrate phosphorylation using fluorescence-labelled peptides as substrate at 9 uM after 90 mins by microfluidic peptide phosphorylation assay.
Experiment [9] has as its target Ribosomal protein S6 kinase alpha-3 (Homo sapiens) (UniProt P51812). Briefly: Inhibition of human full length RSK2 expressed in baculovirus assessed as substrate phosphorylation using fluorescence-labelled peptides as substrate at 9 uM after 90 mins by microfluidic peptide phosphorylation assay.
For experiment [10], the target named is Tyrosine-protein kinase BTK (Homo sapiens) (UniProt Q06187). As to the kind of experiment: Inhibition of human full length BTK expressed in baculovirus assessed as substrate phosphorylation using fluorescence-labelled peptides as substrate at 70 uM after 90 mins by microfluidic peptide phosphorylation assay.
In experiment [11] the target is Ribosomal protein S6 kinase alpha-4 (Homo sapiens) (UniProt O75676). Briefly: Inhibition of human full length MSK2 expressed in baculovirus assessed as substrate phosphorylation using fluorescence-labelled peptides as substrate at 2 uM after 90 mins by microfluidic peptide phosphorylation assay.
In experiment [12] the target is Glycogen synthase kinase-3 beta (Homo sapiens) (UniProt P49841). Briefly: Inhibition of human full length GSK-3 beta expressed in baculovirus assessed as substrate phosphorylation using fluorescence-labelled peptides as substrate at 95 uM after 90 mins by microfluidic peptide phosphorylation assay.
Experiment [13] has as its target T2, Protein kinase C zeta type (Homo sapiens) (UniProt Q05513).
T2 sequence (whole entry): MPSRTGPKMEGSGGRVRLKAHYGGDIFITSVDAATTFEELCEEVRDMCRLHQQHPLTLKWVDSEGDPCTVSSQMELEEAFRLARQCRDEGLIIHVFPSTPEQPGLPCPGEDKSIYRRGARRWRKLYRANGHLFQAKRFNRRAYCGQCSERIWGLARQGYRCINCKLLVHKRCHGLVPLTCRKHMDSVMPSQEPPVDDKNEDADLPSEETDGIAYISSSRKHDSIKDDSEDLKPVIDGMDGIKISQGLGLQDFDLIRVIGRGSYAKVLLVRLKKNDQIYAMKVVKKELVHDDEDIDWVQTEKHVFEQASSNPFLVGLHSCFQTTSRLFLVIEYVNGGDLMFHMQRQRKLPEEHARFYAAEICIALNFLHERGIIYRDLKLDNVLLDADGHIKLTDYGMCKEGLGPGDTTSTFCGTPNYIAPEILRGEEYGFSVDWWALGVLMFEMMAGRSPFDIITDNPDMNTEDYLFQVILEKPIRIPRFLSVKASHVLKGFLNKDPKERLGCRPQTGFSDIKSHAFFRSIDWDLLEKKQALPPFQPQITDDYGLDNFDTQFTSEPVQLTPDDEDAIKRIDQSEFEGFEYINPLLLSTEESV
Briefly: Inhibition of human full length PKC zeta expressed in baculovirus assessed as substrate phosphorylation using fluorescence-labelled peptides as substrate at 1000 uM after 90 mins by microfluidic peptide phosphorylation assay.

Structures are written as SMILES.

What is called inhibition is the share of the control response that was lost under treatment.

Fibroblast growth factor receptor 2 (Homo sapiens), sequence (P21802 22-821 limits assumed): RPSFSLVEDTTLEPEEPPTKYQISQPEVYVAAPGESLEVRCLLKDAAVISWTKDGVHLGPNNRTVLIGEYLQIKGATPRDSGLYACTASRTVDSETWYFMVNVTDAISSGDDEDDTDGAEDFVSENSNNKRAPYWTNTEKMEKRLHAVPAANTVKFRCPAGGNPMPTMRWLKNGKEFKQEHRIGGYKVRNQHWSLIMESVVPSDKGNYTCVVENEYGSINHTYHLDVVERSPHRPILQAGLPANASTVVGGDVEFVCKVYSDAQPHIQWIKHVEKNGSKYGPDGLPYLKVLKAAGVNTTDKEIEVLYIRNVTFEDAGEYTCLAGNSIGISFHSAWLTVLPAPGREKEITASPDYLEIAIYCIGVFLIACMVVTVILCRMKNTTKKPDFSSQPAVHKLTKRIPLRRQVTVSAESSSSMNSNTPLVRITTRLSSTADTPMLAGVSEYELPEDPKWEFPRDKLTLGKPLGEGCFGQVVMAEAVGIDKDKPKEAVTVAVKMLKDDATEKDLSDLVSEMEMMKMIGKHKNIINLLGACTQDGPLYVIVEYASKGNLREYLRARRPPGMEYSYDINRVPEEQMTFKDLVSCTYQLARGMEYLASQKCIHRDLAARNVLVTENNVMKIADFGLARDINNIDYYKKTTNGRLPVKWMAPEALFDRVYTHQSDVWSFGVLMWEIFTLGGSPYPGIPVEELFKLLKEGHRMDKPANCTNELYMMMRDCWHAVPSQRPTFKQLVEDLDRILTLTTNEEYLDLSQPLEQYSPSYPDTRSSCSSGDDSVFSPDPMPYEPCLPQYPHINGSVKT
Mitogen-activated protein kinase 14 (Homo sapiens), sequence (Q16539 whole entry, the tested form may be a part): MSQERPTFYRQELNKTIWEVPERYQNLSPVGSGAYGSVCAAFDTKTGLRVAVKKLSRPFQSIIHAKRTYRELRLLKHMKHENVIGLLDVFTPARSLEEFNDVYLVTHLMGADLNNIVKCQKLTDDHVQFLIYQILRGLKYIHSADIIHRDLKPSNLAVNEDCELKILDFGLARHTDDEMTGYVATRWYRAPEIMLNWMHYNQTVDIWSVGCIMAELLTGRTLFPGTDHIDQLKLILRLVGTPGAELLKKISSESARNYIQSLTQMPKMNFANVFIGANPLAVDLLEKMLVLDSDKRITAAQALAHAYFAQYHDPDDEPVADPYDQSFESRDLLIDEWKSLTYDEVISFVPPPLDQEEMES
Aurora kinase B (Homo sapiens), sequence (Q96GD4 whole entry): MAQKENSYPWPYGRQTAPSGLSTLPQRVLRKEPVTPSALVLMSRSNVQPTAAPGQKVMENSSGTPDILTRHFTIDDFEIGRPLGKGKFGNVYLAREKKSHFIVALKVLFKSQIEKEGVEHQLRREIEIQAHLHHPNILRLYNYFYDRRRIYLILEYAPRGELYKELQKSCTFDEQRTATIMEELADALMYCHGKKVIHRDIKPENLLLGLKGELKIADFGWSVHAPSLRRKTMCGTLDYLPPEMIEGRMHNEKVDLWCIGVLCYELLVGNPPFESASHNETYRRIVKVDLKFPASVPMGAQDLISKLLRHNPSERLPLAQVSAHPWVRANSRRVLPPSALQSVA
Tyrosine-protein kinase BTK (Homo sapiens), sequence (Q06187 whole entry): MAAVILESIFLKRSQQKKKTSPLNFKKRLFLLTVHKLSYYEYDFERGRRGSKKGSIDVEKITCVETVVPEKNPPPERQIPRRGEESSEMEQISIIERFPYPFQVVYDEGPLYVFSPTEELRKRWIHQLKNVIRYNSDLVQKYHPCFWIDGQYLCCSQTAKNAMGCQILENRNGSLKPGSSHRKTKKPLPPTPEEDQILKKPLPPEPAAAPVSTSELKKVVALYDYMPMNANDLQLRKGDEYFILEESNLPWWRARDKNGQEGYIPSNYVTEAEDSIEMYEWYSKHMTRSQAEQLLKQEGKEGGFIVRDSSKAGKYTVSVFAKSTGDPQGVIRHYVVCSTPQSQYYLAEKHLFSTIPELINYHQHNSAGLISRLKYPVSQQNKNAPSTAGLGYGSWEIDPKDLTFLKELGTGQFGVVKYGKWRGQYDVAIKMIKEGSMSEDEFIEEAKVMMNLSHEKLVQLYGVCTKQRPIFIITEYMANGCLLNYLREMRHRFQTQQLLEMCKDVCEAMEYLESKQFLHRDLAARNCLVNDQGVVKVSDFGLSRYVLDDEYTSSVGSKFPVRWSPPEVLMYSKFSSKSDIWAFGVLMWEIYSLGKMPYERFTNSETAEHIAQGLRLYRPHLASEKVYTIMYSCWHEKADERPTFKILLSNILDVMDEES
Glycogen synthase kinase-3 beta (Homo sapiens), sequence (P49841 whole entry, looked up): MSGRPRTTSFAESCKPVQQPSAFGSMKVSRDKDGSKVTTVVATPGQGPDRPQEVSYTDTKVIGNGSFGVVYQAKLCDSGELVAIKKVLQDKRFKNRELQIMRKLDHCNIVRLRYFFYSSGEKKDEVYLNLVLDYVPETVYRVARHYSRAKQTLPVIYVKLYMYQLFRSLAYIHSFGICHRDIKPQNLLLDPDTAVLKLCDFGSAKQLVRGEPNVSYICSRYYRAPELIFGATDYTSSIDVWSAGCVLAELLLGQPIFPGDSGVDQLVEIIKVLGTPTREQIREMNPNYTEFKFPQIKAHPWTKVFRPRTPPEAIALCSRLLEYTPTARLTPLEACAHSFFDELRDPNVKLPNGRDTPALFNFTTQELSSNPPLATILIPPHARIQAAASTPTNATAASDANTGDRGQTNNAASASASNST
Receptor-type tyrosine-protein kinase FLT3 (Homo sapiens), sequence (P36888 whole entry, the tested form may be a part): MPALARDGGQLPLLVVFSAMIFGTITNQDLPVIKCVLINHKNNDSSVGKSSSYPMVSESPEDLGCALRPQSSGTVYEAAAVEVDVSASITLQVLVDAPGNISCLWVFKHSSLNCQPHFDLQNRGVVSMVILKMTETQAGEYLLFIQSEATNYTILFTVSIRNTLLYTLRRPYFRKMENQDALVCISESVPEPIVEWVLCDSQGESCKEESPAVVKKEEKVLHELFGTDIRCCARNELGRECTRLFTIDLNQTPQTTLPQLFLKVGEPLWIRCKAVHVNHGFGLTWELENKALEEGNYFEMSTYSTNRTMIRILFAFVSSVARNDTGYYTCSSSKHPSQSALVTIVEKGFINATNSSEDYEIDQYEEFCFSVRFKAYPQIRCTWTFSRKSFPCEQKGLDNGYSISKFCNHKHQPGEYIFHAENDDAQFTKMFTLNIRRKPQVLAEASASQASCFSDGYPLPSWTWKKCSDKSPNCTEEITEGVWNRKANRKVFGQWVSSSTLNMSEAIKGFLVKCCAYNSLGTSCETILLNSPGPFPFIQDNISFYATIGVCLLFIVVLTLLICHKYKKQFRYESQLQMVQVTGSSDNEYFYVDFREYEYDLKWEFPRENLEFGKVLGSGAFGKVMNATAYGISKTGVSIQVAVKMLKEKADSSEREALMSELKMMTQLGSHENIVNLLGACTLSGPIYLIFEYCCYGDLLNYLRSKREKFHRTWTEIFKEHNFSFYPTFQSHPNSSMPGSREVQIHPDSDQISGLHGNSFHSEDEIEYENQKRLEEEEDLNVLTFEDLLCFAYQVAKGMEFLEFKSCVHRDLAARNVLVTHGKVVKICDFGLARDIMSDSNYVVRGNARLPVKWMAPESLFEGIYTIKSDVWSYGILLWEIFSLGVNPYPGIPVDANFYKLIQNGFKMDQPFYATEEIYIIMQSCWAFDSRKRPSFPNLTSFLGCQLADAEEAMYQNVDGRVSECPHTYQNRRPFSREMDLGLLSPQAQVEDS
Ribosomal protein S6 kinase alpha-2 (Homo sapiens), sequence (Q15349 whole entry, the tested form may be a part): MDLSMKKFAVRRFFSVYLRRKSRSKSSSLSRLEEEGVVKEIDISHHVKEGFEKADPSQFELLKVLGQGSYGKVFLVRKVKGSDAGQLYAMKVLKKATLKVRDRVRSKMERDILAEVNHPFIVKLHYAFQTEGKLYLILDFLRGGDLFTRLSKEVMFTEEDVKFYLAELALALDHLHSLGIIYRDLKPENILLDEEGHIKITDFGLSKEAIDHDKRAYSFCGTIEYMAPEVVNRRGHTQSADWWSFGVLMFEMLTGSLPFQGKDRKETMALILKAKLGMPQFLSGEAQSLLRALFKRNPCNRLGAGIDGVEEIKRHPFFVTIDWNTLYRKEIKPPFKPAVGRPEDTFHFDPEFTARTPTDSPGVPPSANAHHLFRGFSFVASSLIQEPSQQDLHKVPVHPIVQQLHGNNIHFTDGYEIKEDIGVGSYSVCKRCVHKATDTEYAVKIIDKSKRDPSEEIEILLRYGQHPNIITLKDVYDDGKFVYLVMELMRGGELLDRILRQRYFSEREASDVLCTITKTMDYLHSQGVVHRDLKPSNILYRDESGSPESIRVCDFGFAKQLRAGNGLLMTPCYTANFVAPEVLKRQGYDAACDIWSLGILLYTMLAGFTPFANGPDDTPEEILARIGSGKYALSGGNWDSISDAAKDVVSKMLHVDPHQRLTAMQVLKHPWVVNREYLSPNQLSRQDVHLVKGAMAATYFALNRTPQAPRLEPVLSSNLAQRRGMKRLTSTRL
Ribosomal protein S6 kinase alpha-3 (Homo sapiens), sequence (P51812 whole entry): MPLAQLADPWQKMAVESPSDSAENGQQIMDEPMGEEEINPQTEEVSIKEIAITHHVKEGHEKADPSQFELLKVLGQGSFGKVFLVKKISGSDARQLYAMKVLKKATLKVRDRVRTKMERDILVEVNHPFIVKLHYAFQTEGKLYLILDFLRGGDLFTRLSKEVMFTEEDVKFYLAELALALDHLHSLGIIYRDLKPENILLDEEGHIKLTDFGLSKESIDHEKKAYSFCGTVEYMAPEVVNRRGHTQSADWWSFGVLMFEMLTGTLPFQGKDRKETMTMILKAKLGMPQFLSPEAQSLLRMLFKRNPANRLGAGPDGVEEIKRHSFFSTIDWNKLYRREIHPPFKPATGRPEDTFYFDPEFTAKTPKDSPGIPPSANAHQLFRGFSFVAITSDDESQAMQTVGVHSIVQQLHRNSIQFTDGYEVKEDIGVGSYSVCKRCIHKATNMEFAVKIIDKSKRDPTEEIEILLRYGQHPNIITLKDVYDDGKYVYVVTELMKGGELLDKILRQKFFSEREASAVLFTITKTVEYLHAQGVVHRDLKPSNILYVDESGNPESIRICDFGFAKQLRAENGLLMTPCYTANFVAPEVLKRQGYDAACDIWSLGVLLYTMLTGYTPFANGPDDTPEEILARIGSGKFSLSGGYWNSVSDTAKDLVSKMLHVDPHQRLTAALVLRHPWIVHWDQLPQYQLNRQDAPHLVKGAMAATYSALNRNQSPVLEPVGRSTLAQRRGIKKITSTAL

Turning to `c1nc(N2CCOCC2)c2nc[nH]c2n1`, the inhibition was found to be 99% in experiment [1], 85.5% in experiment [2] and 96% in experiment [3].

Take `NC1(Cc2ccc(Cl)cc2)CCN(c2ncnc3[nH]ccc23)CC1`: the inhibition in experiment [4] stood at 0%. Regarding `Clc1ccc(C2(c3ccc(-c4ncnc5[nH]cnc45)cc3)CCNCC2)cc1`, the inhibition in [5] worked out at 0%; in experiment [6], 4%; in [7], 5%.

As for `NCC1CN(c2ncnc3[nH]c4cnccc4c23)CCO1` (stereo not drawn), the results for the inhibition in experiment [8] and in [9] were 74% and 95.5%, respectively. As to `CNCc1ccc(-c2ncnc3[nH]cnc23)cc1`, the inhibition in experiment [10] is 0%. `NC1CCN(c2ncnc3[nH]ccc23)CC1`: the inhibition in experiment [11] was 15%. With `NCCc1ccc(-c2ncnc3[nH]cnc23)cc1`, the inhibition in experiment [12] was determined as 55%.

For `c1cnc2[nH]ccc2c1`, the inhibition in experiment [13] was 31.5%.
